Assay results from patent US5645852A, “Butyric ester cyto-differtiating agents” (Sloan-Kettering Institute for Cancer Research, priority 1995, dated 1997).

Assays:
[1] = test system: aberrant blood cells of thalassemia; conditions: in vitro; cited from earlier work
[2] = test system: aberrant blood cells of sickle cell anemia; conditions: in vitro; cited from earlier work
HL-60 = conditions: in vitro; cited from earlier work
HT-29 = conditions: in vitro; cited from earlier work
[3] = design: species or system male Sprague Dawley rats; conditions: rat, in vivo
Experimental: Three male Sprague Dawley rats (Harlan Sprague Dawley, Houston, Tex.) weighing approximately 306 g were fasted overnight and gavaged with 1 gm of tributyrin (Sigma catalog #T-5142, 99% pure, 302.4M) directly into the stomach. A fourth rat-was not gavaged. Rats were sacrificed at time zero (without gavage) or 0.5, 2 and 4 hours post gavage. At time of sacrifice, each rat was anesthetized with a mixture of ketamine (87 mg/kg) and rompun (13 mg/kg). A cardiac puncture was performed and approximately 2 mls of blood was withdrawn into a heparinized vacutainer tube. Blood was centrifuged at 2000×g for 7 minutes and plasma was withdrawn and stored frozen until analysis. At the time of analysis, plasma concentration was determined by the method of Remsey and Demigne (1974) using chromatographic methods as described by Boffa et al. (1992).
A single oral dose bolus of 1 gm of tributyrin was administered to rats, and the plasma levels of free butyrate measured over 4 hours.

[4] = test system: chemically induced colon cancer; conditions: 5% of the feed, mice; cited from earlier work
thalassemia = conditions: continuous intravenous infusions, 500 mg/kg/day or higher, several days; cited from earlier work
leukemia [5] = conditions: intravenous infusions 500 mg/kg body weight per day for several days, child with leukemia; cited from earlier work
[6] = test system: 1,2-dimethylhydraxine-induced rat intestine neoplasia; conditions: equivalent intake to tributyrin at 5% of feed; cited from earlier work
[7] = test system: cancer or transformed cells lines; conditions: combinations of sodium butyrate and active Vitamin D forms; cited from earlier work
[8] = intravenous infusion, 500 mg/kg per day; cited from earlier work
leukemia [9] = conditions: intravenous infusion, 500 mg/kg per day; cited from earlier work
[10] = plasma, humans and rabbits; cited from earlier work
sickle cell = conditions: continuous intravenous infusions, 500 mg/kg/day or higher, several days; cited from earlier work
[11] = continuous intravenous infusions, 500 mg/kg/day or higher, several days; cited from earlier work

CCCC(=O)O [butyrate, butyric acid]
concentration giving desirable changes of aberrant blood cells [1]: about 0.05 mM
concentration giving desirable changes of aberrant blood cells [2]: about 0.05 mM
concentration at which butyrate has differentiation action (HL-60): 0.3 to 5 mM
concentration at which butyrate has differentiation action (HT-29): 0.3 to 5 mM

CCCC(=O)OCC(COC(=O)CCC)OC(=O)CCC [tributyrin, glyceryl tributyrate]
absorption of butyrate [3]: very rapidly absorbed
return of plasma butyrate to baseline [3]: almost back to baseline at 4 hours
half-life of butyrate ([3]; po): about 40 minutes
peak level of butyrates ([3]; po): 0.35 mM
time over 0.10 mM butyrate ([3]; po): about 2 hours
prevention of chemically induced colon cancer [4]: ineffective
promoting or cancer increasing effect [4]: did not produce the promoting or cancer increasing effect

CCCC(=O)[O-].[Na+] [sodium butyrate]
success in treating thalassemia patients (thalassemia): success
remission (leukemia [5]): short-lived remission
promoting or cancer increasing effect [6]: promoting or cancer increasing effect
effect of combination with active Vitamin D forms on differentiation [7]: additive or synergistic effects
metabolic half-life [8]: about 6 minutes
clinical response (leukemia [9]): no clinical response
half-life [10]: about 6 minutes
success in treating sickle cell patients (sickle cell): success
metabolism of butyrate [11]: apparently rapidly metabolized
